Measurements as given in patent publication US20250171426A1, “PYRIMIDINEDIONE-BASED COMPOUNDS AS AXL, C-MET, AND MER INHIBITORS AND METHODS OF USE THEREOF” (CMG Pharmaceutical Co., Ltd., priority 2022, published 2025).

What was measured:
Type in all cases: biochemical
Settings in all cases: 10 μM ATP, 60 min, ADP-GLO luminescence
c-MET = c-MET (Homo sapiens, UniProt P08581); assay: Enzymatic assay (ADP-Glo kinase reaction), c-MET
Protocol: (§1) All the kinase reactions were performed in 5 μL using tyrosine kinase buffer with 0.2 μg/μL poly (Glu4, Tyr1) substrate, 10 μM ATP, serial dilution of the inhibitor, and incubated at room temperature for 60 min. After the indicated incubation times, 5 μL ADP-GLO™ reagent (Promega, Madison, WI) was added to the reactions and the plate was incubated at room temperature for 40 min. […] All 384-well assay plates were read using a GLOMAX™ Discover Microplate Luminometer from Promega (Madison, WI). To plot, analyze the data and calculate all kinase reaction biochemical values, both Microsoft Excel and Prism from GraphPad 7 Software (La Jolla, CA) were used.

MER = target: T1, MER (Homo sapiens, UniProt Q12866); assay: Enzymatic assay (ADP-Glo kinase reaction), MER
T1 sequence (Q12866 21-999): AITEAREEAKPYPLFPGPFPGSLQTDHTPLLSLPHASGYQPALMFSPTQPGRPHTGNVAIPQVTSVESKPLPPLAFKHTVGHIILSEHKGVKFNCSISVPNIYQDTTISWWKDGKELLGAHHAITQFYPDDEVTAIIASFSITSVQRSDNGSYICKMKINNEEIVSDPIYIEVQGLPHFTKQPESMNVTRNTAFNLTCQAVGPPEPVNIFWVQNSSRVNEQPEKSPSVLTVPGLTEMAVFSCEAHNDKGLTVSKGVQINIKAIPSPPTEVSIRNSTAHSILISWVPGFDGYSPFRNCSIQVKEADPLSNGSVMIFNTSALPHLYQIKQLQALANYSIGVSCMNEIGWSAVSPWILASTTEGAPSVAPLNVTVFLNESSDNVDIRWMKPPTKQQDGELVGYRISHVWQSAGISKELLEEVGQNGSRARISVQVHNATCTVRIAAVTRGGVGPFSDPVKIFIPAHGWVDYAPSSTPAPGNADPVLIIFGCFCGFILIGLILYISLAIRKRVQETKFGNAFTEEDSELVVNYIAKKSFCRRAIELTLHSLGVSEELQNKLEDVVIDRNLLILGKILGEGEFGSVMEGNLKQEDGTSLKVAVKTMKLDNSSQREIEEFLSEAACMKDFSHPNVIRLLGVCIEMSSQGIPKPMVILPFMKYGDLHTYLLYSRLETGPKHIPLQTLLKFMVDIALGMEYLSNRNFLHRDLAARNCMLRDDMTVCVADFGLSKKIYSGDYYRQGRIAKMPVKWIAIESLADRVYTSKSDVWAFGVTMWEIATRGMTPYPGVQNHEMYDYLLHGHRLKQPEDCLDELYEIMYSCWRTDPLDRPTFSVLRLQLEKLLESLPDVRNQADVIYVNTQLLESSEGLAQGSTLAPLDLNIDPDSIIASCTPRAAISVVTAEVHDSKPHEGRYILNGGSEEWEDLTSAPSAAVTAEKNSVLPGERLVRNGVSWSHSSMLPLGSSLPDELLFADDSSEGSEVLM
Protocol: (§2) All the kinase reactions were performed in 5 μL using tyrosine kinase buffer with 0.2 μg/μL poly (Glu4, Tyr1) substrate, 10 μM ATP, serial dilution of the inhibitor, and incubated at room temperature for 60 min. After the indicated incubation times, 5 μL ADP-GLO™ reagent (Promega, Madison, WI) was added to the reactions and the plate was incubated at room temperature for 40 min. Then, 10 μL of kinase detection reagent was added and after an incubation time of 40 min, luminescence was recorded and IC50 values were determined (Table 1). All 384-well assay plates were read using a GLOMAX™ Discover Microplate Luminometer from Promega (Madison, WI). To plot, analyze the data and calculate all kinase reaction biochemical values, both Microsoft Excel and Prism from GraphPad 7 Software (La Jolla, CA) were used.
as §2, with “3).” for “1).”

AXL = target: T2, AXL (Homo sapiens, UniProt P30530); assay: Enzymatic assay (ADP-Glo kinase reaction), AXL
T2 sequence (P30530 26-894): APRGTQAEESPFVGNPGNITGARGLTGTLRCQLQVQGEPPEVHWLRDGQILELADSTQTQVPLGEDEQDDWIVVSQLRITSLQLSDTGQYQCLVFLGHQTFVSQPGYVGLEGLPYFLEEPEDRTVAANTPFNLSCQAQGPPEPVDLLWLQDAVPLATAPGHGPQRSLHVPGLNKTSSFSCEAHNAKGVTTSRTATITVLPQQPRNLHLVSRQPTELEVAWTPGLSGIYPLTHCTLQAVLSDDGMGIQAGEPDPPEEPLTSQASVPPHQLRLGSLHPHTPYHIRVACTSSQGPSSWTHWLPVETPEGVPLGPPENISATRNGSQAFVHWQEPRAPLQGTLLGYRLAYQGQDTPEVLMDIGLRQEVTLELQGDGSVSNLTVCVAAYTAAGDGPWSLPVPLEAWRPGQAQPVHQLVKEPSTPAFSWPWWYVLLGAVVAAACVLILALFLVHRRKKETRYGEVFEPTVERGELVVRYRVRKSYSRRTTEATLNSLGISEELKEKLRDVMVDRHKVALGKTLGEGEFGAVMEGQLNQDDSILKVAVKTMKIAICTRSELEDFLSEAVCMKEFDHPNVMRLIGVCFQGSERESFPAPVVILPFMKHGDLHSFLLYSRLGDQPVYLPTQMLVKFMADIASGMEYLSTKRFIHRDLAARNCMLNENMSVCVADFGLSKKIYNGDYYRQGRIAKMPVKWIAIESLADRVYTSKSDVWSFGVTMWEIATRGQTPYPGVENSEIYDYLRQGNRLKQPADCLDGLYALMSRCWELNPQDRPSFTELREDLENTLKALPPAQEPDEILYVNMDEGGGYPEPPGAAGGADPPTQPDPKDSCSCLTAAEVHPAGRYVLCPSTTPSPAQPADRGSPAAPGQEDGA
Protocol: as §1

c-MET, sequence (P08581 25-1390): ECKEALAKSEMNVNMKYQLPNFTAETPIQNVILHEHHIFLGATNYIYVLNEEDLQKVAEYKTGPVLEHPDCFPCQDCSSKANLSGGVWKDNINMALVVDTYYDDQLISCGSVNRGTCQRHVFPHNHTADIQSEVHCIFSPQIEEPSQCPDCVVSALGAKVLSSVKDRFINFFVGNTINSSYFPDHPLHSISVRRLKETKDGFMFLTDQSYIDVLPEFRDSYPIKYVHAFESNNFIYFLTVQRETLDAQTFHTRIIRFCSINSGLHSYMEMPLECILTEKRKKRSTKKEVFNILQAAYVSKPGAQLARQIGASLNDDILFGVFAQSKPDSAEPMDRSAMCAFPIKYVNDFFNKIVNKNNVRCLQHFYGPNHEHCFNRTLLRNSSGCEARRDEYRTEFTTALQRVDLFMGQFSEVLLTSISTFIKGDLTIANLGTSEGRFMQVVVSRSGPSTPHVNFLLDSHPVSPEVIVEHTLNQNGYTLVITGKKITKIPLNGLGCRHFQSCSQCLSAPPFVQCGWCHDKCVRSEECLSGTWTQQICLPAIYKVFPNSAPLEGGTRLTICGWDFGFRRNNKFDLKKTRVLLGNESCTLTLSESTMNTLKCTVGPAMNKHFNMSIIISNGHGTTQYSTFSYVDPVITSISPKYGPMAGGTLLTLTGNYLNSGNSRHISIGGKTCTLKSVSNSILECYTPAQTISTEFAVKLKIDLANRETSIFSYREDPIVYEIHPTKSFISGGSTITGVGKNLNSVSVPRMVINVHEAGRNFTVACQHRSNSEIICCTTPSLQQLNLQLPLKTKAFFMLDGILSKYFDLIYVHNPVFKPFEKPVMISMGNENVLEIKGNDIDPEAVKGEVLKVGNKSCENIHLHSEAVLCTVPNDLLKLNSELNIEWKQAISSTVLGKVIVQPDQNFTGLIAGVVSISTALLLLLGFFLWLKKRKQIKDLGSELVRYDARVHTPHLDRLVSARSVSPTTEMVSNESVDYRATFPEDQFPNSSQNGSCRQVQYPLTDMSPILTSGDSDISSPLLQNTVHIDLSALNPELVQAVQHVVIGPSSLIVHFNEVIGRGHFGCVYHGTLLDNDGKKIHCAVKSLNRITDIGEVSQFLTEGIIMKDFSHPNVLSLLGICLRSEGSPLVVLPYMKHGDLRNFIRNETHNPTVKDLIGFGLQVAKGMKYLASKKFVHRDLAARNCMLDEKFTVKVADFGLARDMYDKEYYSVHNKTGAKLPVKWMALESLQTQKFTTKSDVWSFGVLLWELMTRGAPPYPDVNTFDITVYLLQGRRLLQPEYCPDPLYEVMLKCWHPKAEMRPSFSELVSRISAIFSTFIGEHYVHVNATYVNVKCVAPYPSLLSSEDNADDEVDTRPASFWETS

Structure (SMILES)	IC50 (c-MET)	IC50 (MER)	IC50 (AXL)
COCCN1CCN(CC#Cc2c(Oc3ccc(NC(=O)c4cn(C(C)C)c(=O)n(-c5ccc(F)cc5)c4=O)cc3F)ccnc2N)CC1 [Example 18, N-(4-(2-amino-3-(3-(4-(2-methoxyethyl)piperazin-1-yl)prop-1-ylny)pyridin-4-yloxy)-3-fluorophenyl)-3-(4-fluorophenyl)-1-isopropyl-2,4-dioxo-1,2,3,4-tetrahydropyrimidine-5-carboxamide]	< 10 nM	< 10 nM	< 10 nM
COCCN1CCN(C(C)(C)C#Cc2c(Oc3ccc(NC(=O)c4cn(C(C)C)c(=O)n(-c5ccc(F)cc5)c4=O)cc3F)ccnc2N)CC1 [Example 20, N-(4-(2-amino-3-(3-(4-(2-methoxyethyl)piperazin-1-yl)-3-methylbut-1-ynyl)pyridin-4-yloxy)-3-fluorophenyl)-3-(4-fluorophenyl)-1-isopropyl-2,4-dioxo-1,2,3,4-tetrahydropyrimidine-5-carboxamide]	< 10 nM	< 10 nM	< 10 nM
CC(C)n1cc(C(=O)Nc2ccc(Oc3ccnc(N)c3-c3ccccc3)c(F)c2)c(=O)n(-c2ccc(F)cc2)c1=O [Example 22, N-(4-(2-amino-3-phenylpyridin-4-yloxy)-3-fluorophenyl)-3-(4-fluorophenyl)-1-isopropyl-2,4-dioxo-1,2,3,4-tetrahydropyrimidine-5-carboxamide]	< 100 nM	< 100 nM	< 100 nM
CC(C)n1cc(C(=O)Nc2ccc(Oc3ccnc(N)c3C#CC(C)(C)N3CCOCC3)c(F)c2)c(=O)n(-c2ccc(F)cc2)c1=O [Example 25, N-(4-(2-amino-3-(3-methyl-3-morpholinobut-1-ynyl)pyridin-4-yloxy)-3-fluorophenyl)-3-(4-fluorophenyl)-1-isopropyl-2,4-dioxo-1,2,3,4-tetrahydropyrimidine-5-carboxamide]	< 10 nM	< 10 nM	< 10 nM
CC(C)n1cc(C(=O)Nc2ccc(Oc3ccnc(N)c3C#CCN3CCN(C)CC3)c(F)c2)c(=O)n(-c2ccc(F)cc2)c1=O [Example 26, N-(4-(2-amino-3-(3-(4-methylpiperazin-1-yl)prop-1-ynyl)pyridine-4-yloxy)-3-fluorophenyl)-3-(4-fluorophenyl)-1-isopropyl-2,4-dioxo-1,2,3,4-tetrahydropyrimidine-5-carboxamide]	< 10 nM	< 10 nM	< 10 nM
CC(C)n1cc(C(=O)Nc2ccc(Oc3ccnc(N)c3C#CCC3CCNCC3)c(F)c2)c(=O)n(-c2ccc(F)cc2)c1=O [Example 27, N-(4-(2-amino-3-(3-(piperidin-4-yl)prop-1-ynyl)pyridin-4-yloxy)-3-fluorophenyl)-3-(4-fluorophenyl)-1-isopropyl-2,4-dioxo-1,2,3,4-tetrahydropyrimidine-5-carboxamide]	< 10 nM	< 10 nM	< 10 nM
COCCN1CCC(CC#Cc2c(Oc3ccc(NC(=O)c4cn(C(C)C)c(=O)n(-c5ccc(F)cc5)c4=O)cc3F)ccnc2N)CC1 [Example 28, N-(4-(2-amino-3-(3-(1-(2-methoxyethyl)piperidin-4-yl)prop-1-ynyl)pyridin-4-yloxy)-3-fluorophenyl)-3-(4-fluorophenyl)-1-isopropyl-2,4-dioxo-1,2,3,4-tetrahydropyrimidine-5-carboxamide]	< 10 nM	< 10 nM	< 10 nM

Other lines, results leading:

IC50 (c-MET)	IC50 (MER)	IC50 (AXL)	Structure (SMILES)
< 100 nM	< 10 nM	< 10 nM	CC(C)n1cc(C(=O)Nc2ccc(Oc3ccnc(N)c3C#CC3CCNCC3)c(F)c2)c(=O)n(-c2ccc(F)cc2)c1=O [Example 15, N-(4-(2-amino-3-(piperidin-4-ylethynyl)pyridin-4-yloxy)-3-fluorophenyl)-3-(4-fluorophenyl)-1-isopropyl-2,4-dioxo-1,2,3,4-tetrahydropyrimidine-5-carboxamide]
< 10 nM	< 10 nM	< 10 nM	COCCN1CCC(C#Cc2c(Oc3ccc(NC(=O)c4cn(C(C)C)c(=O)n(-c5ccc(F)cc5)c4=O)cc3F)ccnc2N)CC1 [Example 16]
< 10 nM	< 10 nM	< 10 nM	CC(C)n1cc(C(=O)Nc2ccc(Oc3ccnc(N)c3C#CCN3CCNCC3)c(F)c2)c(=O)n(-c2ccc(F)cc2)c1=O [Example 17]
< 1000 nM	< 10 nM	< 10 nM	CC(C)n1cc(C(=O)Nc2ccc(Oc3ccnc(N)c3C#CC(C)(C)N3CCNCC3)c(F)c2)c(=O)n(-c2ccc(F)cc2)c1=O [Example 19, N-(4-(2-amino-3-(3-methyl-3-(piperazin-1-yl)but-1-ynyl)pyridin-4-yloxy)-3-fluorophenyl)-3-(4-fluorophenyl)-1-isopropyl-2,4-dioxo-1,2,3,4-tetrahydropyridmidine-5-carboxamide]
< 10000 nM	< 1000 nM	< 1000 nM	COCCN1CCN(C(=O)CCc2c(Oc3ccc(NC(=O)c4cn(C(C)C)c(=O)n(-c5ccc(F)cc5)c4=O)cc3F)ccnc2N)CC1 [Example 21, N-(4-(2-amino-3-(3-(4-(2-methoxyethyl)piperazin-1-yl)-3-oxopropyl)pyridin-4-yloxy)-3-fluorophenyl)-3-(4-fluorophenyl)-1-isopropyl-2,4-dioxo-1,2,3,4-tetrahydropyrimidine-5-carboxamide]
< 1000 nM	< 10 nM	< 10 nM	CC(C)n1cc(C(=O)Nc2ccc(Oc3ccnc(N)c3C#CC3CCN(C)CC3)c(F)c2)c(=O)n(-c2ccc(F)cc2)c1=O [Example 23, N-(4-(2-amino-3-((1-methylpiperidin-4-yl)ethynyl)pyridin-4-yloxy)-3-fluorophenyl)-3-(4-fluorophenyl)-1-isopropyl-2,4-dioxo-1,2,3,4-tetrahydropyrimidine-5-carboxamide]
